Results from US8921267B2, “Safening 6-(trisubstituted phenyl)-4-amino-2-pyridinecarboxylate herbicide injury on cereal crops” (Dow AgroSciences LLC, priority 2008, dated 2014).

Assays:
[1] = tested on: Russian thistle (Salsola iberica L; SASKR); test: Postemergence herbicidal activity, greenhouse, visual injury: Russian thistle; type: in vivo; design: key: visual injury, 0–100%: 0 = no injury, 100 = complete kill
Method: (§1) Evaluation of Postemergence Herbicidal Safening in Cereal Crops
(§2) Seeds of the desired test plant species were planted in Sun Gro MetroMix® 306 planting mixture, which typically has a pH of 6.0 to 6.8 and an organic matter content of about 30 percent, in plastic pots with a surface area of 103.2 square centimeters (cm^2). When required to ensure good germination and healthy plants, a fungicide treatment and/or other chemical or physical treatment was applied. The plants were grown for 7-36 days (d) in a greenhouse with an approximate 14-hour (h) photoperiod which was maintained at about 18° C. during the day and 17° C. during the night. Nutrients and water were added on a regular basis and supplemental lighting was provided with overhead metal halide 1000-Watt lamps as necessary. The plants were employed for testing when they reached the second or third true leaf stage.
(§3) Weighed amounts of esters (methyl) or salts (TEA [triethylammonium], K [potassium]) of 4-amino-3-chloro-6-(4-chloro-2-fluoro-3-methoxyphenyl)pyridine-2-carboxylic acid (Compound 1) were dissolved in a volume of 97:3 volume/volume (v/v) acetone/dimethylsulfoxide (DMSO) to obtain stock solutions. […] The concentrated stock solutions were diluted with an aqueous mixture of 1.5% v/v of Agri-dex crop oil concentrate to provide the appropriate application rates. Compound requirements are based upon a 12 mL application volume at a rate of 187 liters per hectare (L/ha). Stocks solutions of the safeners were prepared following the same procedure. Spray solutions of the safeners and experimental compound mixtures were prepared by adding the stock solutions to the appropriate amount of dilution solution to form a 12 mL spray solution with active ingredients in two-way combinations. Formulated compounds were applied to the plant material with an overhead Mandel track sprayer equipped with 8002E nozzles calibrated to deliver 187 L/ha over an application area of 0.503 square meters (m^2) at a spray height of 18 inches (43 centimeters (cm)) above average plant canopy. Control plants were sprayed in the same manner with the solvent blank.
(§4) The treated plants and control plants were placed in a greenhouse as described above and watered by sub-irrigation to prevent wash-off of the test compounds. After 20-22 d, the condition of the test plants as compared with that of the control plants was determined visually and scored on a scale of 0 to 100 percent where 0 corresponds to no injury and 100 corresponds to complete kill.
(§5) Colby's equation was used to determine the herbicidal effects expected from the mixtures (Colby, S. R. Calculation of the synergistic and antagonistic response of herbicide combinations. Weeds 1967, 15, 20-22.).
(§6) The following equation was used to calculate the expected activity of mixtures containing two active ingredients, A and B: Expected=A+B−(A×B/100)
(§7) A=observed efficacy of active ingredient A at the same concentration as used in the mixture.
(§8) B=observed efficacy of active ingredient B at the same concentration as used in the mixture.

[2] = tested on: wheat (Triticum aestivum L; TRZAS); test: Postemergence herbicidal safening, greenhouse, visual injury: wheat; type: in vivo
Method: as §1, §2, §3, §4, §5, §6, §7, §8

[3] = tested on: purple deadnettle (Lamium purpureum L; LAMPU); test: Postemergence herbicidal activity, greenhouse, visual injury: purple deadnettle; type: in vivo; design: key: visual injury, 0–100%: 0 = no injury, 100 = complete kill
Method: as §1, §2, §3, §4, §5, §6, §7, §8

[4] = tested on: wheat (Triticum aestivum L; TRZAW); test: Postemergence herbicidal safening, greenhouse, visual injury: wheat (TRZAW); type: in vivo
Method: as §1, §2, §3, §4, §5, §6, §7, §8

[5] = tested on: chickweed (Stellaria media L; STEME); test: Postemergence herbicidal activity, greenhouse, visual injury: chickweed; type: in vivo; design: key: visual injury, 0–100%: 0 = no injury, 100 = complete kill
Method: as §1, §2, §3, §4, §5, §6, §7, §8

[6] = tested on: durum wheat (Triticum durum L; TRZDU); test: Postemergence herbicidal safening, greenhouse, visual injury: durum wheat; type: in vivo
Method: as §1, §2, §3, §4, §5, §6, §7, §8

[7] = tested on: bird's-eye speedwell (Veronica persica L; VERPE); test: Postemergence herbicidal activity, greenhouse, visual injury: bird's-eye speedwell; type: in vivo; design: key: visual injury, 0–100%: 0 = no injury, 100 = complete kill
Method: as §1, §2, §3, §4, §5, §6, §7, §8

[8] = tested on: wild pansy (Viola tricolor L; VIOTR); test: Postemergence herbicidal activity, greenhouse, visual injury: wild pansy; type: in vivo; design: key: visual injury, 0–100%: 0 = no injury, 100 = complete kill
Method: as §1, §2, §3, §4, §5, §6, §7, §8

[9] = tested on: corn poppy (Papaver rhoeas L; PAPRH); test: Postemergence herbicidal activity, greenhouse, visual injury: corn poppy; type: in vivo
Method: as §1, §2, §3, §4, §5, §6, §7, §8

[10] = tested on: cleavers (Galium aparine L; GALAP); test: Postemergence herbicidal activity, greenhouse, visual injury: cleavers; type: in vivo; design: key: visual injury, 0–100%: 0 = no injury, 100 = complete kill
Method: as §1, §2, §3, §4, §5, §6, §7, §8

[11] = tested on: barley (Hordeum vulgare L; HORVS); test: Postemergence herbicidal safening, greenhouse, visual injury: barley; type: in vivo
Method: as §1, §2, §3, §4, §5, §6, §7, §8

[12] = tested on: wild buckwheat (Polygonum convolvulus L; POLCO); test: Postemergence herbicidal activity, greenhouse, visual injury: wild buckwheat; type: in vivo
Method: as §1, §2, §3, §4, §5, §6, §7, §8

barley (HORVW) = test: Postemergence herbicidal safening, greenhouse, visual injury: barley (HORVW)

## CC1COc2ccccc2N1C(=O)C(Cl)Cl (racemic) [Benoxacor, (±)-4-(dichloroacetyl)-3,4-dihydro-3-methyl-2H-1,4-benzoxazine, reference compound]
[1]; applied alone at 17.5 g/ha
  SASKR Ob: 0%
[1]; applied alone at 35 g/ha
  SASKR Ob: 0%
[1]; applied alone at 70 g/ha
  SASKR Ob: 0%
[1]; applied alone at 140 g/ha
  SASKR Ob: 0%
[2]; applied alone at 17.5 g/ha
  TRZAS Ob: 0%
[2]; applied alone at 35 g/ha
  TRZAS Ob: 0%
[2]; applied alone at 70 g/ha
  TRZAS Ob: 0%
[2]; applied alone at 140 g/ha
  TRZAS Ob: 0%
[3]; safener 4.4 g/ha alone
  LAMPU Ob (Observed values): 0
[3]; safener 8.8 g/ha alone
  LAMPU Ob (Observed values): 0
[3]; safener 17.5 g/ha alone
  LAMPU Ob (Observed values): 0
[3]; safener 35 g/ha alone
  LAMPU Ob (Observed values): 0
[4]; safener 4.4 g/ha alone
  TRZAW Ob (Observed values): 0%
[4]; safener 8.8 g/ha alone
  TRZAW Ob (Observed values): 0%
[4]; safener 17.5 g/ha alone
  TRZAW Ob (Observed values): 0%
[4]; safener 35 g/ha alone
  TRZAW Ob (Observed values): 0%
[5]; applied alone at 17.5 g/ha
  STEME Ob: 0%
[5]; applied alone at 35 g/ha
  STEME Ob: 0%
[5]; applied alone at 70 g/ha
  STEME Ob: 0%
[5]; applied alone at 140 g/ha
  STEME Ob: 0%
[6]; safener 4.4 g/ha alone
  TRZDU Ob (Observed values): 0%
[6]; safener 8.8 g/ha alone
  TRZDU Ob (Observed values): 0%
[6]; safener 17.5 g/ha alone
  TRZDU Ob (Observed values): 0%
[6]; safener 35 g/ha alone
  TRZDU Ob (Observed values): 0%
[7]; applied alone at 17.5 g/ha
  VERPE Ob: 0%
[7]; applied alone at 35 g/ha
  VERPE Ob: 0%
[7]; applied alone at 70 g/ha
  VERPE Ob: 0%
[7]; applied alone at 140 g/ha
  VERPE Ob: 0%
[8]; applied alone at 17.5 g/ha
  VIOTR Ob: 0%
[8]; applied alone at 35 g/ha
  VIOTR Ob: 0%
[8]; applied alone at 70 g/ha
  VIOTR Ob: 0%
[8]; applied alone at 140 g/ha
  VIOTR Ob: 0%
[9]; applied alone at 17.5 g/ha
  PAPRH Ob: 0%
[9]; applied alone at 35 g/ha
  PAPRH Ob: 0%
[9]; applied alone at 70 g/ha
  PAPRH Ob: 0%
[9]; applied alone at 140 g/ha
  PAPRH Ob: 0%
[9]; safener 4.4 g/ha alone
  PAPRH Ob (Observed values): 0
[9]; safener 8.8 g/ha alone
  PAPRH Ob (Observed values): 0
[9]; safener 17.5 g/ha alone
  PAPRH Ob (Observed values): 0
[9]; safener 35 g/ha alone
  PAPRH Ob (Observed values): 0
[10]; applied alone at 17.5 g/ha
  GALAP Ob: 0%
[10]; applied alone at 35 g/ha
  GALAP Ob: 0%
[10]; applied alone at 70 g/ha
  GALAP Ob: 0%
[10]; applied alone at 140 g/ha
  GALAP Ob: 0%
[11]; applied alone at 17.5 g/ha
  HORVS Ob: 0%
[11]; applied alone at 35 g/ha
  HORVS Ob: 0%
[11]; applied alone at 70 g/ha
  HORVS Ob: 0%
[11]; applied alone at 140 g/ha
  HORVS Ob: 0%
[12]; applied alone at 17.5 g/ha
  POLCO Ob: 0%
[12]; applied alone at 35 g/ha
  POLCO Ob: 0%
[12]; applied alone at 70 g/ha
  POLCO Ob: 0%
[12]; applied alone at 140 g/ha
  POLCO Ob: 0%
Barley (HORVW); safener 4.4 g/ha alone
  HORVW Ob (Observed values): 0%
Barley (HORVW); safener 8.8 g/ha alone
  HORVW Ob (Observed values): 0%
Barley (HORVW); safener 17.5 g/ha alone
  HORVW Ob (Observed values): 0%
Barley (HORVW); safener 35 g/ha alone
  HORVW Ob (Observed values): 0%

## NC(=O)NS(=O)(=O)c1ccccc1Cl [Compound 2-CBSU, N-(aminocarbonyl)-2-chlorobenzenesulfonamide, reference compound]
[1]; applied alone at 17.5 g/ha
  SASKR Ob: 0%
[1]; applied alone at 35 g/ha
  SASKR Ob: 0%
[1]; applied alone at 70 g/ha
  SASKR Ob: 0%
[1]; applied alone at 140 g/ha
  SASKR Ob: 0%
[2]; applied alone at 17.5 g/ha
  TRZAS Ob: 0%
[2]; applied alone at 35 g/ha
  TRZAS Ob: 0%
[2]; applied alone at 70 g/ha
  TRZAS Ob: 0%
[2]; applied alone at 140 g/ha
  TRZAS Ob: 0%
[3]; safener 4.4 g/ha alone
  LAMPU Ob (Observed values): 0
[3]; safener 8.8 g/ha alone
  LAMPU Ob (Observed values): 0
[3]; safener 17.5 g/ha alone
  LAMPU Ob (Observed values): 0
[3]; safener 35 g/ha alone
  LAMPU Ob (Observed values): 0
[4]; safener 4.4 g/ha alone
  TRZAW Ob (Observed values): 0%
[4]; safener 8.8 g/ha alone
  TRZAW Ob (Observed values): 0%
[4]; safener 17.5 g/ha alone
  TRZAW Ob (Observed values): 0%
[4]; safener 35 g/ha alone
  TRZAW Ob (Observed values): 0%
[5]; applied alone at 17.5 g/ha
  STEME Ob: 0%
[5]; applied alone at 35 g/ha
  STEME Ob: 0%
[5]; applied alone at 70 g/ha
  STEME Ob: 0%
[5]; applied alone at 140 g/ha
  STEME Ob: 0%
[6]; safener 4.4 g/ha alone
  TRZDU Ob (Observed values): 0%
[6]; safener 8.8 g/ha alone
  TRZDU Ob (Observed values): 0%
[6]; safener 17.5 g/ha alone
  TRZDU Ob (Observed values): 0%
[6]; safener 35 g/ha alone
  TRZDU Ob (Observed values): 0%
[7]; applied alone at 17.5 g/ha
  VERPE Ob: 0%
[7]; applied alone at 35 g/ha
  VERPE Ob: 0%
[7]; applied alone at 70 g/ha
  VERPE Ob: 0%
[7]; applied alone at 140 g/ha
  VERPE Ob: 0%
[8]; applied alone at 17.5 g/ha
  VIOTR Ob: 0%
[8]; applied alone at 35 g/ha
  VIOTR Ob: 0%
[8]; applied alone at 70 g/ha
  VIOTR Ob: 0%
[8]; applied alone at 140 g/ha
  VIOTR Ob: 0%
[9]; applied alone at 17.5 g/ha
  PAPRH Ob: 0%
[9]; applied alone at 35 g/ha
  PAPRH Ob: 0%
[9]; applied alone at 70 g/ha
  PAPRH Ob: 0%
[9]; applied alone at 140 g/ha
  PAPRH Ob: 0%
[9]; safener 4.4 g/ha alone
  PAPRH Ob (Observed values): 0
[9]; safener 8.8 g/ha alone
  PAPRH Ob (Observed values): 0
[9]; safener 17.5 g/ha alone
  PAPRH Ob (Observed values): 0
[9]; safener 35 g/ha alone
  PAPRH Ob (Observed values): 0
[10]; applied alone at 17.5 g/ha
  GALAP Ob: 0%
[10]; applied alone at 35 g/ha
  GALAP Ob: 0%
[10]; applied alone at 70 g/ha
  GALAP Ob: 0%
[10]; applied alone at 140 g/ha
  GALAP Ob: 0%
[11]; applied alone at 17.5 g/ha
  HORVS Ob: 0%
[11]; applied alone at 35 g/ha
  HORVS Ob: 0%
[11]; applied alone at 70 g/ha
  HORVS Ob: 0%
[11]; applied alone at 140 g/ha
  HORVS Ob: 0%
[12]; applied alone at 17.5 g/ha
  POLCO Ob: 0%
[12]; applied alone at 35 g/ha
  POLCO Ob: 0%
[12]; applied alone at 70 g/ha
  POLCO Ob: 0%
[12]; applied alone at 140 g/ha
  POLCO Ob: 0%
Barley (HORVW); safener 4.4 g/ha alone
  HORVW Ob (Observed values): 0%
Barley (HORVW); safener 8.8 g/ha alone
  HORVW Ob (Observed values): 0%
Barley (HORVW); safener 17.5 g/ha alone
  HORVW Ob (Observed values): 0%
Barley (HORVW); safener 35 g/ha alone
  HORVW Ob (Observed values): 0%
